In paper PMC9142856 (Heliyon, 2022) one finds IC50 data, which are given here for one compound.

Molecules are shown by their SMILES.

This assay deals with dipeptidyl peptidase-IV (DPP-IV) (Homo sapiens, UniProt P27487). Description: in vitro enzyme inhibition assay, Gly-Pro-p-nitroanilide substrate. It is filed as biochemical.
Sequence of dipeptidyl peptidase-IV (DPP-IV) (P27487 39-766): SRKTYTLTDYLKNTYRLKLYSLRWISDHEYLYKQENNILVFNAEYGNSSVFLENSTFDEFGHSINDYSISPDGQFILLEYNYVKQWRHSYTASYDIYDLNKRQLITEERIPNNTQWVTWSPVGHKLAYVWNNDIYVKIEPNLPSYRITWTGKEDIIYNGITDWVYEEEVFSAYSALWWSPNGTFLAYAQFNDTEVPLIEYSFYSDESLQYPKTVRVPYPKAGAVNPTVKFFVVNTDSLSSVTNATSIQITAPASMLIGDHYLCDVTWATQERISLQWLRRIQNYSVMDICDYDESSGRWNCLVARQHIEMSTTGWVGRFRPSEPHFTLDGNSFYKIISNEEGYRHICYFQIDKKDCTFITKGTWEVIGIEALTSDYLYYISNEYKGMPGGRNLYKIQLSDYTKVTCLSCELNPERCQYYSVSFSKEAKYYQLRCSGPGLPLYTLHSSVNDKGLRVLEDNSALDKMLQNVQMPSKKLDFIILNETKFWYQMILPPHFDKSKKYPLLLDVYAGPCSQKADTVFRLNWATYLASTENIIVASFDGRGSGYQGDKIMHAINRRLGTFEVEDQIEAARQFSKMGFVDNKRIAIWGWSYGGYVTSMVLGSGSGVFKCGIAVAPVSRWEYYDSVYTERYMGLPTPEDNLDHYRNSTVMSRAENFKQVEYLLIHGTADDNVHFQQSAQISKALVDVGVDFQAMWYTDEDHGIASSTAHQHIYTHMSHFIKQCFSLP

`CC(C)=CCC/C(C)=C/Cc1c(O)ccc(C(=O)/C=C/c2ccc(O)cc2)c1O` [XA, xanthoangelol] showed a half-inhibitory concentration (IC50) of 10.5 µM.
